# Measurements as given in publication PMC7663272, “Discovery of Tricyclic Pyranochromenone as Novel Bruton’s Tyrosine Kinase Inhibitors with In Vivo Antirheumatic Activity” (International Journal of Molecular Sciences, 2020).
# Molecular target: T1, CYP1A2 (Homo sapiens, UniProt P05177)
# T1 construct: purchased Promega V9770
# T1 sequence (P05177 1-516): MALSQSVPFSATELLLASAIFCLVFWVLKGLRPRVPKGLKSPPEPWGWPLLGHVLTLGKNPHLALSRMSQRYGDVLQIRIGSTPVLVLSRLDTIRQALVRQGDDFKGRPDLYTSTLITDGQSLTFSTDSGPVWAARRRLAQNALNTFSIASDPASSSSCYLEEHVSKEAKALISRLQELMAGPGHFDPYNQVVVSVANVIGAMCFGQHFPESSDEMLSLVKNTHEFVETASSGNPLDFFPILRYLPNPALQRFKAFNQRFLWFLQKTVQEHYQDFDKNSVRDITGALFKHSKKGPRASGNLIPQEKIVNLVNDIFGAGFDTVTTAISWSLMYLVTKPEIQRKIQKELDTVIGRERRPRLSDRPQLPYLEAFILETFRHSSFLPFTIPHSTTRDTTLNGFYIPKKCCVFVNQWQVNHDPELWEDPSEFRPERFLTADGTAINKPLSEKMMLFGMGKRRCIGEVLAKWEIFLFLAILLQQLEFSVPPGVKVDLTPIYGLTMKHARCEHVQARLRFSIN
# Experiment: P450-Glo CYP inhibition assay, CYP1A2
# Format: in vitro ADME
# Method: The potential for CYP450 inhibition (CYP1A2, 2C9, 2C19, 2D6, and […]) was assessed using Promega P450-Glo^TM CYP450 assay systems. Luciferin-ME served as the substrate for CYP1A2, and the inhibitor α-naphthoflavone was used as a positive control. Luciferin-H was used as the substrate for CYP2C9, and the inhibitor sulfaphenazole was used as a positive control. Luciferin-H EGE was selected as the substrate for CYP2C19, whereas the inhibitor amitriptyline served as a positive control. Luciferin-ME EGE was used as the substrate for CYP2D6, whereas the inhibitor quinidine served as a positive control. Luciferin-BE was used as the substrate for CYP3A4, whereas the inhibitor ketoconazole was used as a positive control. The assays were performed using the excitation and emission wavelengths recommended by the manufacturer. Briefly, a CYP enzyme and a P450-Glo™ substrate were combined in potassium phosphate (0.1 M KPO4) buffer, with or without a test compound of interest, and […]. The reaction was initiated by adding two volumes of 2 times concentrated NADPH regeneration system. […] Luminescence was subsequently measured using a Tecan Infinite M1000 PRO microplate reader (Tecan Group Ltd., Switzerland). The percent inhibition was calculated relative to that of the positive control at a fixed concentration. […]
compound,measurement,setting,value
"C=CC(=O)O[C@H]1Cc2cc3ccc(=O)oc3cc2OC1(C)C [Compound 8, (7S)-(+)-Acrylic acid, 8,8-dimethyl-2-oxo-6,7-dihydro-2H,8H-pyrano [3,2-g]chromen-7-yl ester]",CYP1A2 inhibition (in words),,rarely inhibited
same,CYP inhibition 1A2,% inhibition of human CYP isozymes at 10 μM,<1%
